This is an account of results in patent US6630431B2, “Nail polish lacquer remover” (Board of Trustees of Michigan State University, priority 2001, dated 2003).

One data set is described as follows: Vapor pressure. The conditions noted are these: @ 20° C. The class given is physicochemical. The procedure:
The vapor pressure of ethyl lactate is 1.6 mmHg @ 20° C. and for diethyl succinate is 0.2 mmHg @ 20° C. These are very favorable for a nail polish removing lacquer.

For data set [1] the following is noted: animals; cited from earlier work.

In turn, `CCOC(=O)CCC(=O)OCC` [diethyl succinate] showed a vapor pressure in “Vapor pressure” of 0.2 mmHg. Further, the LD50 data entry in data set [1] was “very large doses are required to produce toxic results”.

On to `CCOC(=O)C(C)O` (stereo not shown) [ethyl lactate], for which, in “Vapor pressure”, the vapor pressure is 1.6 mmHg. The LD50 data entry in data set [1] was “very large doses are required to produce toxic results”.
